In US20240294489A1 (Captor Therapeutics S.A., priority 2020, published 2024):
Where two headings read alike, the source gives them in different places.

Experiments:
Type in all cases: cell-based
Aiolos (IKZF3) = target: T1, Aiolos (IKZF3) (Homo sapiens, UniProt Q96SW2+Q9UKT9); experiment: Aiolos degradation assay, H929 cell line; conditions: H929 cells, 20 μM, 24 h
T1 construct: Aiolos degradation in the H929 cell line was investigated; endogenous in cells; host or cells: H929
Protocol: (§1) Cells were seeded on 6- or 12-well plates, and the compounds to be tested were added at the desired concentration range. […] After 24 h incubation (37° C., 5% CO2), cells were harvested, washed and cell lysates were prepared using RIPA lysis buffer. The amount of protein was determined via BCA assay, and the appropriate quantity was then loaded on the precast gel for the protein separation. After primary and secondary Ab staining, the membranes were washed and signals developed. The densitometry analysis was implemented to obtain the numeric values used later in the protein level evaluation process.

SALL4 [1] = target: T2, SALL4 (Homo sapiens, UniProt Q96SW2+Q9UJQ4); experiment: SALL4 degradation assay, Kelly cell line (Western blot densitometry); conditions: Kelly cells, 100 nM, 24 h, average from n ≥ 2 experiments
T2 construct: SALL4 degradation in the Kelly cell line was investigated; endogenous in cells; host or cells: Kelly
T2 sequence (Q9UJQ4 whole entry): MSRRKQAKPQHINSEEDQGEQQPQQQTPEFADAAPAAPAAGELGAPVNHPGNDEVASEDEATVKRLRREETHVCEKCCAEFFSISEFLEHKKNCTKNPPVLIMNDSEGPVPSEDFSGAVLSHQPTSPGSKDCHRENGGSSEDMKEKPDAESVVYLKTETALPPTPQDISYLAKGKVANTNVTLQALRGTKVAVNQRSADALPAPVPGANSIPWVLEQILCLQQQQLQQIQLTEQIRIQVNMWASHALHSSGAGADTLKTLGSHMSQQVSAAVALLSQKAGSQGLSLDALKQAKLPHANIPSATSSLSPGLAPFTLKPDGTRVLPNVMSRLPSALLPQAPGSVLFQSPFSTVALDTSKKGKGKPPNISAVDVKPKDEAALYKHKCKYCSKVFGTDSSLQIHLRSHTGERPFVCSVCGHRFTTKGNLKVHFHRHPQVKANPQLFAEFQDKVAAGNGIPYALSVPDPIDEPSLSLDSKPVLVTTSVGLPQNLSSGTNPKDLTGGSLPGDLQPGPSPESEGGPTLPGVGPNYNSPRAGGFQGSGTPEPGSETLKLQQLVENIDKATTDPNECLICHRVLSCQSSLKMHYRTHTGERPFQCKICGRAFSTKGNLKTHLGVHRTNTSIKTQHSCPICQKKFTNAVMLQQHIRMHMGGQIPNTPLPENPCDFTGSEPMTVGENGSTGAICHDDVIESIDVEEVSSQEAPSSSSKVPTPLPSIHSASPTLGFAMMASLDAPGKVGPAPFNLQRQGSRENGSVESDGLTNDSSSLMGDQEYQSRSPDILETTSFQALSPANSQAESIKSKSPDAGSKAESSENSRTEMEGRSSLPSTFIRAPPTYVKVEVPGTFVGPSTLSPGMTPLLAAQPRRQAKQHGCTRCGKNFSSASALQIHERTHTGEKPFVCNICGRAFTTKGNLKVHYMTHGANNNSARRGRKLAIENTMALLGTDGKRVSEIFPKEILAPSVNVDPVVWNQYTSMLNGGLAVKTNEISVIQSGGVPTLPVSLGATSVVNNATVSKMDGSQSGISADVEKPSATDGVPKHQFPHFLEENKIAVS
T2 sequence (Q96SW2 whole entry): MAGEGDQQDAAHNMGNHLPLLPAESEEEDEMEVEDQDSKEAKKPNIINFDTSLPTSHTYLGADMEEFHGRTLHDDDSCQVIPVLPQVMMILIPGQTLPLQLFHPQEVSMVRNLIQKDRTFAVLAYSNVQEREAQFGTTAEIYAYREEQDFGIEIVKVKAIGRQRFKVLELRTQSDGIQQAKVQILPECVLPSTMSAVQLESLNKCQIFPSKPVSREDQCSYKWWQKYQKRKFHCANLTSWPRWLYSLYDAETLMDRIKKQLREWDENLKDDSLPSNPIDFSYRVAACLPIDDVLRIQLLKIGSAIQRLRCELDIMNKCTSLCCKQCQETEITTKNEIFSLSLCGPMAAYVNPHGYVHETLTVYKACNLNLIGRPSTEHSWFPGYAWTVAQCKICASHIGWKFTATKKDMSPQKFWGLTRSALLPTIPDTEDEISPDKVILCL
T2 sequence (Q16531 whole entry partner): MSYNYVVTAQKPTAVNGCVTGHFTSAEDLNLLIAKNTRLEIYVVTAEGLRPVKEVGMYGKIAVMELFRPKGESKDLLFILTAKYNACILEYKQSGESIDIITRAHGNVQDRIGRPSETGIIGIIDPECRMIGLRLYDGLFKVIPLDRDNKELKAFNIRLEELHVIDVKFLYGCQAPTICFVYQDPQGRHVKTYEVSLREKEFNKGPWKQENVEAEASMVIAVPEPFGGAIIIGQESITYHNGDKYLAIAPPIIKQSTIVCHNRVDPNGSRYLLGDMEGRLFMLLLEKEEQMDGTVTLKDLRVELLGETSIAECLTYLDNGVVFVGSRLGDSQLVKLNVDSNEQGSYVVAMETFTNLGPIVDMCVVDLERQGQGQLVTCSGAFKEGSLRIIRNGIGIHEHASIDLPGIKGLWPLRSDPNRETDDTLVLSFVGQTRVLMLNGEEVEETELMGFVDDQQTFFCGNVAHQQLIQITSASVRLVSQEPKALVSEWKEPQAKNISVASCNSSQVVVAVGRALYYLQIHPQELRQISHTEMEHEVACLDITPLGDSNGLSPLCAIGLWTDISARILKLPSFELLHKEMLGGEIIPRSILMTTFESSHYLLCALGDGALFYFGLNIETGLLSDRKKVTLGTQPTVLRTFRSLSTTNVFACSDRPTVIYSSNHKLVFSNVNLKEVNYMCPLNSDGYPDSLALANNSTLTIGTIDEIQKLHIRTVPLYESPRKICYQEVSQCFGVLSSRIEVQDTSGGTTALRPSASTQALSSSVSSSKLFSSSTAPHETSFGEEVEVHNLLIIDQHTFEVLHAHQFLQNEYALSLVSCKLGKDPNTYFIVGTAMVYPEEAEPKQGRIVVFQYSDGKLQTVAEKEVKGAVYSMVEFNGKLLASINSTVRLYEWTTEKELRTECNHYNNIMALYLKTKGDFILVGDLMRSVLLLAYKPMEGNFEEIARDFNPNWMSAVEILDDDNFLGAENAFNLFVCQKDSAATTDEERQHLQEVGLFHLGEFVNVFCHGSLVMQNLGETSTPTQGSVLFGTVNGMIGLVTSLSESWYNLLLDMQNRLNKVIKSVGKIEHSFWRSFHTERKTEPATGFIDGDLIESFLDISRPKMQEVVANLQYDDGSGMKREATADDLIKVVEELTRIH
Protocol: as §1

GSPT1 = target: T3, GSPT1 (Homo sapiens, UniProt P15170+Q96SW2); experiment: GSPT1 degradation assay, Hep3B cell line; conditions: HEP3B cells, 24 h, read-out: % of GSPT1 protein reduction
T3 construct: GSPT1 degradation in the Hep3B cell line was investigated; endogenous in cells; host or cells: Hep3B
T3 sequence (P15170 whole entry): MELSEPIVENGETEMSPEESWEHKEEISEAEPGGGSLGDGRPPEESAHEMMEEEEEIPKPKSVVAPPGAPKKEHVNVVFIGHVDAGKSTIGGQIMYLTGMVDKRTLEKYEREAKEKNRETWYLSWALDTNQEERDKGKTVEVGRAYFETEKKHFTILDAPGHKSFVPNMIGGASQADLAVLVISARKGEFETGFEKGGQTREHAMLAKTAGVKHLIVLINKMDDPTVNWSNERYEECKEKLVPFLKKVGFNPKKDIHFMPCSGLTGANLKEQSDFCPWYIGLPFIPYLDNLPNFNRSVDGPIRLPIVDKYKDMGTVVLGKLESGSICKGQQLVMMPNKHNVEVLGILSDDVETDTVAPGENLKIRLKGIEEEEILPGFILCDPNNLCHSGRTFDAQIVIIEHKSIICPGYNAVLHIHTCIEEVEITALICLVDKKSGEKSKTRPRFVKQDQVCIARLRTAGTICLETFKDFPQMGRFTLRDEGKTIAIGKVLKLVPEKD
T3 sequence (Q96SW2 whole entry): as the sequence (Q96SW2 whole entry) above
T3 sequence (Q16531 whole entry partner): as the sequence (Q16531 whole entry partner) above
Protocol: (§2) Hep3B cells were maintained in EMEM medium, supplemented with penicillin/streptomycin and 10% Fetal Bovine Serum (FBS). Cells were seeded on 6- or 12-well plates, and the compounds to be tested were added at the desired concentration range. Final DMSO concentration was 0.25%. After 24 h incubation (37° C., 5% CO2), cells were harvested, washed and cell lysates were prepared using RIPA lysis buffer. The amount of protein was determined via BCA assay, and the appropriate quantity was then loaded on the precast gel for the protein separation. After primary and secondary Ab staining, the membranes were washed and signals developed. The densitometry analysis was implemented to obtain the numeric values used later in the protein level evaluation process. Densitometry values were normalized to the loading control and calculated as [%] of the DMSO control.

KG-1 cells = experiment: Cell viability CTG assay, KG-1; conditions: Homo sapiens; KG-1, 72 h, 0.001-50 μM; read-out: KG-1 Geomean absolute IC50 by molecule, 72 H
Protocol: (§3) The effect of various compounds of the invention and various reference compounds on cell viability in various cell lines was investigated, using the Cell Viability—CTG Assay Protocol below. Hep3B, Kelly, H929, KG-1 and SNU-398 cells were maintained in respective cell medium (see Table 8, below). The cells were seeded on the 96-well or 384-white plates, and the compounds to be tested were added at the desired concentration range. Compounds are diluted in DMSO, and the DMSO concentration is kept constant at 0.25% v/v across the assay plate. After 72 h incubation (37° C., 5% CO2), CellTiter-Glo® Reagent (Promega/G7570) was added to the wells. Plates are shaken for 4 minutes and incubated for 8 minutes in the dark prior to reading luminescence (LU) by using the CLARIOstar Multimode Plate Reader. The signal is proportional to the amount of ATP, which is directly proportional to the number of cells present in the culture.
(§4) Luminescence (RLU) values were normalized to DMSO control. Dose response is assessed by non-linear regression and IC50 calculation with the average of technical duplicate of percentage inhibition. IC50 values are reported as absolute IC50 values, being the concentration of test compound at the intersection of the concentration-response curves with T/C=50%. For calculation of mean IC50 values the geometric mean is used.

Kelly cells [2] = experiment: Cell viability CTG assay, Kelly; conditions: 72 h, 0.001-50 μM, read-out: Kelly Geomean absolute IC50 by molecule, 72 H
Protocol: as §3, §4

Ikaros (IKZF1) = target: T4, Ikaros (IKZF1) (Homo sapiens, UniProt Q13422+Q96SW2); experiment: Ikaros degradation assay, H929 cell line; conditions: NCI-H929, H929 cells, 10 uM, 24 h, read-out: % of IKZF1 protein reduction
T4 construct: Ikaros degradation in the H929 cell line was investigated; endogenous in cells; host or cells: H929
T4 sequence (Q13422 whole entry): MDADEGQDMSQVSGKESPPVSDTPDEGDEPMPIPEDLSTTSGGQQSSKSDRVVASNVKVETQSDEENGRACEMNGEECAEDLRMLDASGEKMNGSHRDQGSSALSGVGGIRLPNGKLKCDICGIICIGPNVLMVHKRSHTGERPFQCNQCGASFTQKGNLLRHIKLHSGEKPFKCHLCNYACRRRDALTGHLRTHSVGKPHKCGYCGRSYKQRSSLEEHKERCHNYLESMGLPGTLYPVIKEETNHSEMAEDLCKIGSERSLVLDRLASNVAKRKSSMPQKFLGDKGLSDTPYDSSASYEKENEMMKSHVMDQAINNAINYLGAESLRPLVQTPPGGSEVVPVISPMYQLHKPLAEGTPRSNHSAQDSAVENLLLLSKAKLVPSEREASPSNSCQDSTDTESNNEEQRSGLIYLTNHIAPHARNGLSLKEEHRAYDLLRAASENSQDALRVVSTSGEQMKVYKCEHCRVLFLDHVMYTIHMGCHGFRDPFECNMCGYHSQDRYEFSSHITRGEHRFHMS
T4 sequence (Q96SW2 whole entry): as the sequence (Q96SW2 whole entry) above
T4 sequence (Q16531 whole entry partner): as the sequence (Q16531 whole entry partner) above
Protocol: as §1

Hep3B cells [3] = experiment: Cell viability CTG assay, Hep3B; conditions: Homo sapiens, 72 h, 0.001-50 μM, read-out: Hep3B Geomean absolute IC50 by molecule, 72 H
Protocol: as §3, §4

H929 cells = experiment: Cell viability CTG assay, H929; parameters: key to Geomean absolute IC50 by molecule, 72 H: Inactive represents IC50 > 50 μM; C represents 50 μM ≥ IC50 > 5 μM; conditions: H929, 72 h, 0.001-50 μM; for IC50: Homo sapiens, NCI-H929, numeric values, read-out: Geomean absolute IC50 by molecule, 72 H
Protocol: as §3, §4

SALL4 [4] = target: T2, SALL4; experiment: SALL4 degradation in the Kelly cell line, time course; conditions: Kelly cells, 0.1 μM, 3, 6, 12, 24, 48 and 72 h, FIG. 2
Protocol: as §2, with “Kelly” for “Hep3B”, “RPMI-1640” for “EMEM”, “After” for “After 24 h”, “CO2) for a specified period of time,” for “CO2),”, “process.” for “process. Densitometry values were normalized to the loading control and calculated as [%] of the DMSO control.”

EOL-1 = experiment: Cell viability, additional cell lines (CellTiter-Glo), EOL-1; conditions: Homo sapiens, EOL1; EOL-1, 72 h; read-out: Absolute IC50
Protocol: (§5) Tumor cells are grown at 37° C. in a humidified atmosphere with 5% CO2 in RPMI 1640 medium, supplemented with 10% (v/v) fetal calf serum and 50 μg/ml gentamicin for up to 20 passages, and are passaged once or twice weekly.
(§6) Cells are harvested from exponential phase cultures, counted and plated in 96 well flat-bottom microtiter plates at a cell density depending on the cell line's growth rate (4,000-20,000 cells/well depending on the cell line's growth rate, up to 60,000 for hematological cancer cell lines) in RPMI 1640 medium supplemented with 10% (v/v) fetal calf serum and 50 μg/ml gentamicin (140 μl/well). Cultures are incubated at 37° C. and 5% CO2 in a humidified atmosphere. After 24 h, 10 μl of test compounds or control medium are added and left on the cells for another 72 h. Compounds are serially diluted in DMSO, transferred in cell culture medium, and added to the assay plates by using a Tecan Freedom EVO 200 robotic platform. The DMSO concentration is kept constant at 0.3% v/v across the assay plate. Viability of cells is quantified by the CellTiter-Glo® cell viability assay (Promega G8462). After incubation of cells, 100 μl of CellTiter-Glo® One Solution Assay reagent are added to each well. Plates are shaken for 2 minutes to induce cell lysis and incubated for 20 minutes prior to reading luminescence (LU) by using the EnVision® Xcite multilabel plate reader (Perkin Elmer). […]

U-266 = experiment: Cell viability, additional cell lines (CellTiter-Glo), U-266; conditions: Homo sapiens, U-266, 72 h; read-out: Absolute IC50
Protocol: as §5, §6

LP-1 = experiment: Cell viability, additional cell lines (CellTiter-Glo), LP-1; conditions: Homo sapiens, LP-1, 72 h; read-out: Absolute IC50
Protocol: as §5, §6

TMD8 = experiment: Cell viability, additional cell lines (CellTiter-Glo), TMD8; conditions: Homo sapiens, TMD8, 72 h; read-out: Absolute IC50
Protocol: as §5, §6

PL-21 = experiment: Cell viability, additional cell lines (CellTiter-Glo), PL-21; conditions: PL-21, 72 h; read-out: Absolute IC50
Protocol: as §5, §6

OCI-AML2 = experiment: Cell viability, additional cell lines (CellTiter-Glo), OCI-AML2; conditions: Homo sapiens, OCI-AML2, 72 h; read-out: Absolute IC50
Protocol: as §5, §6

OPM-2 = experiment: Cell viability, additional cell lines (CellTiter-Glo), OPM-2; conditions: Homo sapiens, OPM-2, 72 h; read-out: Absolute IC50
Protocol: as §5, §6

U-937 = experiment: Cell viability, additional cell lines (CellTiter-Glo), U-937; conditions: Homo sapiens, U-937, 72 h; read-out: Absolute IC50
Protocol: as §5, §6

NOMO-1 = experiment: Cell viability, additional cell lines (CellTiter-Glo), NOMO-1; conditions: Homo sapiens, NOMO-1, 72 h; read-out: Absolute IC50
Protocol: as §5, §6

NCI-H929 = experiment: Cell viability, additional cell lines (CellTiter-Glo), NCI-H929; conditions: Homo sapiens, NCI-H929, 72 h; read-out: Absolute IC50
Protocol: as §5, §6

HL-60 = experiment: Cell viability, additional cell lines (CellTiter-Glo), HL-60; conditions: Homo sapiens, HL-60, 72 h; read-out: Absolute IC50
Protocol: as §5, §6

SNU-398 cells = experiment: Cell viability CTG assay, SNU-398; conditions: Homo sapiens; SNU-398, 72 h, 0.001-50 μM, FIG. 6C
Protocol: as §3, §4

IM-9 = experiment: Cell viability, additional cell lines (CellTiter-Glo), IM-9; conditions: Homo sapiens, IM-9, 72 h; read-out: Absolute IC50
Protocol: as §5, §6

Kasumi-1 = experiment: Cell viability, additional cell lines (CellTiter-Glo), Kasumi-1; conditions: Homo sapiens; Kasumi-1, 72 h; read-out: Absolute IC50
Protocol: as §5, §6

SU-DHL-1 = experiment: Cell viability, additional cell lines (CellTiter-Glo), SU-DHL-1; conditions: Homo sapiens, SU-DHL-1, 72 h; read-out: Absolute IC50
Protocol: as §5, §6

Kelly cells [5] = experiment: Cell survival clonogenic assay, Kelly; conditions: 0.1-10 μM, crystal violet staining after 9-10 days
Protocol: (§7) To determine the ability of a single cell to form a colony (defined as a cluster of at least 50 cells), Kelly and Hep3B cells were maintained in RPM11640 (Kelly) or EMEM (Hep3B) medium, supplemented with penicillin/streptomycin and 10% FBS. The cells were counted and seeded on the 6-well plates, at the density of 1×10^3 cells per well, the compounds to be tested were added at the desired concentration range, and the cells were cultured at 37° C./5% CO2. After colony formation (9-10 days), the cells were washed and treated with 6.0% glutaraldehyde and 0.5% crystal violet mix for 30 min., followed by rinsing with water and drying at room temperature (RT).

Hep3B cells [6] = experiment: Cell survival clonogenic assay, Hep3B; conditions: 0.1-10 μM, crystal violet staining after 9-10 days
Protocol: as §7

T1 sequence (Q9UKT9 whole entry): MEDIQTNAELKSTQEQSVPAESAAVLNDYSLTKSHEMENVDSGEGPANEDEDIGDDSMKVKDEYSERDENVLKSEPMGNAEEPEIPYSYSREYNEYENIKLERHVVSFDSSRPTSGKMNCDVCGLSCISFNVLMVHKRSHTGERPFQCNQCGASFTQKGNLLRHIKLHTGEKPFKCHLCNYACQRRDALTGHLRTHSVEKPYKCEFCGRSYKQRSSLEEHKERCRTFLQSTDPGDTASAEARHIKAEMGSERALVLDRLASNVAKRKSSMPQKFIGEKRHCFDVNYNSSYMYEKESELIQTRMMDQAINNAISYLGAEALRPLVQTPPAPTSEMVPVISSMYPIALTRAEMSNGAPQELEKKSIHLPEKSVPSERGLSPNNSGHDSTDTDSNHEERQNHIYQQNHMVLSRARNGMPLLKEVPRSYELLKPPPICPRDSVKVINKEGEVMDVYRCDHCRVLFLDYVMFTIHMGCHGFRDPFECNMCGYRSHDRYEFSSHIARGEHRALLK
T1 sequence (Q96SW2 whole entry): as the sequence (Q96SW2 whole entry) above
T1 sequence (Q16531 whole entry partner): as the sequence (Q16531 whole entry partner) above

N[C@@H](Cc1cnc[nH]1)C(=O)NCc1ccc2c(c1)CN([C@@H]1CCC(=O)NC1=O)C2=O [Compound 27, (S)-2-amino-N-((2-((R)-2,6-dioxopiperidin-3-yl)-1-oxoisoindolin-5-yl)methyl)-3-(1H-imidazol-4-yl)propanamide]
% of IKZF3 protein reduction (Aiolos (IKZF3)): C (C represents 0-24% of IKZF1 protein reduction) | % of SALL4 protein reduction (SALL4 [1]): >80% | inhibition at 1 µM (GSPT1): 80 to 100% | IC50 (KG-1 cells): 100 to 1000 nM | IC50 (Kelly cells [2]): 100 to 1000 nM | inhibition at 10 µM (Ikaros (IKZF1)): 0 to 24% | IC50 (Hep3B cells [3]): 100 to 1000 nM | Geomean absolute IC50 by molecule, 72 H (H929 cells): Inactive

Nc1c(O)ccc2c1C(=O)N(C1CCC(=O)NC1=O)C2=O (stereo not drawn) [Compound 44, 4-amino-2-(2,6-dioxopiperidin-3-yl)-5-hydroxyisoindoline-1,3-dione]
% of SALL4 protein reduction (SALL4 [1]): >80% | SALL4 degradation time course (SALL4 [4]): more rapidly and effectively than lenalidomide | inhibition at 1 µM (GSPT1): 50 to 79% | inhibition at 10 µM (Ikaros (IKZF1)): 0 to 24%

O=C1CCC(N2Cc3cc(CNC(=O)C(F)(F)c4ccc(Cl)cc4)ccc3C2=O)C(=O)N1 (stereo not drawn) [CC-90009, reference compound]
IC50 (EOL-1): 2 nM | IC50 (U-266): 56 nM | IC50 (LP-1): 28 nM | IC50 (TMD8): 264 nM | IC50 (PL-21): 10 nM | IC50 (OCI-AML2): 18 nM | inhibition at 10 µM (Ikaros (IKZF1); numeric values): 33% | IC50 (OPM-2): 74 nM | IC50 (U-937): 78 nM | IC50 (NOMO-1): 40 nM | IC50 (NCI-H929): 399 nM | IC50 (HL-60): 3 nM | IC50 (SNU-398 cells): > 9900 nM | IC50 (IM-9): 85 nM | IC50 (H929 cells): 189 nM | IC50 (Kasumi-1): 35 nM | IC50 (SU-DHL-1): 153 nM

NCc1cc2c(cc1F)C(=O)N(C1CCC(=O)NC1=O)C2 (stereo not drawn) [Compound 3, 3-[5-(aminomethyl)-6-fluoro-1-oxo-2,3-dihydro-1H-isoindol-2-yl]piperidine-2,6-dione]
inhibition at 10 µM (GSPT1; 10 uM): 80 to 100% | IC50 (KG-1 cells): ≤ 100 nM | IC50 (Kelly cells [2]): ≤ 100 nM | inhibition at 10 µM (Ikaros (IKZF1)): 0 to 24% | IC50 (SNU-398 cells): 82 nM | IC50 (Hep3B cells [3]): ≤ 100 nM | Geomean absolute IC50 by molecule, 72 H (H929 cells): Inactive

Nc1cccc2c1CN(C1CCC(=O)NC1=O)C2=O (stereo not drawn) [Lenalidomide, lenalidomide, reference compound]
survival of the cells (colony formation) (Kelly cells [5]): no activity | survival of the cells (colony formation) (Hep3B cells [6]): no activity | IC50 (H929 cells): 433 nM
